Data taken from the NIST ThermoML archive (doi:10.1016/j.jct.2009.07.006).
Numbers after ± are expanded uncertainties.

Conditions: Liquid, Vibrating tube method

Cc1ccncc1 [4-methylpyridine]
mass density [kg/m3]
Conditions	298.15 K	308.15 K	318.15 K	328.15 K
2130 kPa	951.2 ± 0.3	942.3 ± 0.3	933.3 ± 0.3	924.3 ± 0.3
4150 kPa	952.5 ± 0.3	943.7 ± 0.3	934.7 ± 0.3	925.8 ± 0.3
6180 kPa	953.8 ± 0.3	945 ± 0.3	936.1 ± 0.3	927.3 ± 0.3
8210 kPa	955.1 ± 0.3	946.4 ± 0.3	937.4 ± 0.3	928.7 ± 0.3
10230 kPa	956.3 ± 0.3	947.7 ± 0.3	938.9 ± 0.3	930.2 ± 0.3
11250 kPa	956.9 ± 0.3	948.3 ± 0.3	939.5 ± 0.3	930.9 ± 0.3
12260 kPa	957.5 ± 0.3	949 ± 0.3	940.2 ± 0.3	931.6 ± 0.3
14290 kPa	958.8 ± 0.3	950.3 ± 0.3	941.6 ± 0.3	933 ± 0.3
16310 kPa	960 ± 0.3	951.5 ± 0.3	942.9 ± 0.3	934.4 ± 0.3
18340 kPa	961.2 ± 0.3	952.8 ± 0.3	944.2 ± 0.3	935.7 ± 0.3
20370 kPa	962.3 ± 0.3	954 ± 0.3	945.5 ± 0.3	937.1 ± 0.3
22390 kPa	963.5 ± 0.3	955.2 ± 0.3	946.7 ± 0.3	938.4 ± 0.3
24420 kPa	964.6 ± 0.3	956.4 ± 0.3	948 ± 0.3	939.7 ± 0.3
26450 kPa	965.8 ± 0.3	957.6 ± 0.3	949.2 ± 0.3	941.1 ± 0.3
28470 kPa	966.9 ± 0.3	958.8 ± 0.3	950.5 ± 0.3	942.3 ± 0.3
29490 kPa	967.4 ± 0.3	959.3 ± 0.3	951.1 ± 0.3	943 ± 0.3
30500 kPa	968 ± 0.3	959.9 ± 0.3	951.7 ± 0.3	943.6 ± 0.3
32530 kPa	969.1 ± 0.3	961.1 ± 0.3	952.9 ± 0.3	944.8 ± 0.4
34550 kPa	970.2 ± 0.3	962.2 ± 0.3	954 ± 0.3	946.1 ± 0.4
36580 kPa	971.3 ± 0.3	963.3 ± 0.3	955.2 ± 0.3	947.3 ± 0.4
38600 kPa	972.3 ± 0.3	964.4 ± 0.3	956.4 ± 0.3	948.5 ± 0.4
39620 kPa	972.8 ± 0.3	965 ± 0.3	957 ± 0.3	949.1 ± 0.4

c1ccncc1 [pyridine]
mass density [kg/m3]
Conditions	298.15 K	308.15 K	318.15 K	328.15 K
2130 kPa	979 ± 0.2	969.2 ± 0.2	959.3 ± 0.2	949.2 ± 0.2
4150 kPa	980.4 ± 0.2	970.6 ± 0.2	960.8 ± 0.2	950.7 ± 0.2
6180 kPa	981.8 ± 0.2	972.1 ± 0.2	962.3 ± 0.2	952.3 ± 0.2
8210 kPa	983.2 ± 0.2	973.5 ± 0.2	963.7 ± 0.2	953.9 ± 0.2
10230 kPa	984.5 ± 0.2	974.9 ± 0.2	965.2 ± 0.2	955.4 ± 0.2
11250 kPa	985.1 ± 0.2	975.6 ± 0.2	966 ± 0.2	956.2 ± 0.2
12260 kPa	985.8 ± 0.2	976.3 ± 0.2	966.7 ± 0.2	956.9 ± 0.2
14290 kPa	987.1 ± 0.2	977.6 ± 0.2	968.1 ± 0.2	958.4 ± 0.2
16310 kPa	988.3 ± 0.2	978.9 ± 0.2	969.5 ± 0.2	959.9 ± 0.2
18340 kPa	989.6 ± 0.2	980.3 ± 0.2	970.9 ± 0.2	961.3 ± 0.2
20370 kPa	990.8 ± 0.2	981.6 ± 0.2	972.2 ± 0.2	962.8 ± 0.2
22390 kPa	992.1 ± 0.2	982.8 ± 0.2	973.6 ± 0.2	964.2 ± 0.2
24420 kPa	993.3 ± 0.2	984.1 ± 0.2	974.9 ± 0.2	965.6 ± 0.2
26450 kPa	994.5 ± 0.2	985.4 ± 0.2	976.2 ± 0.2	967 ± 0.2
28470 kPa	995.7 ± 0.2	986.7 ± 0.2	977.6 ± 0.2	968.3 ± 0.2
29490 kPa	996.3 ± 0.2	987.2 ± 0.2	978.2 ± 0.2	969 ± 0.2
30500 kPa	996.9 ± 0.2	987.8 ± 0.2	978.8 ± 0.2	969.7 ± 0.2
32530 kPa	998 ± 0.2	989 ± 0.2	980.1 ± 0.2	971 ± 0.2
34550 kPa	999.1 ± 0.2	990.3 ± 0.2	981.4 ± 0.2	972.3 ± 0.2
36580 kPa	1000.3 ± 0.2	991.5 ± 0.2	982.6 ± 0.2	973.6 ± 0.2
38600 kPa	1001.4 ± 0.2	992.6 ± 0.2	983.8 ± 0.2	975 ± 0.2
39620 kPa	1002 ± 0.2	993.2 ± 0.2	984.4 ± 0.2	975.6 ± 0.2
